Measurements: the NIST ThermoML archive (doi:10.1021/je049585t)
Numbers after ± are expanded uncertainties.

Assay: molar heat capacity at constant pressure
Settings: 101.33 kPa

## CC1=CCC2C(=O)OC(=O)C2C1 (stereo not drawn) [4-methyl-cyclohex-4-ene-1, 2-dicarboxylic acid anhydride]
205 K, Crystal
  molar heat capacity at constant pressure: 122.4 ± 1.2 J/K/mol
205.18 K, Crystal
  molar heat capacity at constant pressure: 123.46 ± 1.2 J/K/mol
207.19 K, Crystal
  molar heat capacity at constant pressure: 124.73 ± 1.2 J/K/mol
209.14 K, Crystal
  molar heat capacity at constant pressure: 126.14 ± 1.2 J/K/mol
210 K, Crystal
  molar heat capacity at constant pressure: 126.39 ± 1.2 J/K/mol
211.09 K, Crystal
  molar heat capacity at constant pressure: 127.51 ± 1.2 J/K/mol
213.03 K, Crystal
  molar heat capacity at constant pressure: 128.87 ± 1.2 J/K/mol
214.97 K, Crystal
  molar heat capacity at constant pressure: 130.45 ± 1.2 J/K/mol
215 K, Crystal
  molar heat capacity at constant pressure: 130.57 ± 1.2 J/K/mol
216.9 K, Crystal
  molar heat capacity at constant pressure: 132.32 ± 1.2 J/K/mol
218.84 K, Crystal
  molar heat capacity at constant pressure: 133.96 ± 1.2 J/K/mol
220 K, Crystal
  molar heat capacity at constant pressure: 134.91 ± 1.2 J/K/mol
220.75 K, Crystal
  molar heat capacity at constant pressure: 135.72 ± 1.2 J/K/mol
222.7 K, Crystal
  molar heat capacity at constant pressure: 137.13 ± 1.3 J/K/mol
224.58 K, Crystal
  molar heat capacity at constant pressure: 138.58 ± 1.3 J/K/mol
225 K, Crystal
  molar heat capacity at constant pressure: 139.36 ± 1.3 J/K/mol
226.56 K, Crystal
  molar heat capacity at constant pressure: 139.98 ± 1.3 J/K/mol
228.41 K, Crystal
  molar heat capacity at constant pressure: 141.35 ± 1.3 J/K/mol
230 K, Crystal
  molar heat capacity at constant pressure: 143.9 ± 1.3 J/K/mol
230.19 K, Crystal
  molar heat capacity at constant pressure: 142.86 ± 1.3 J/K/mol
232.01 K, Crystal
  molar heat capacity at constant pressure: 144.4 ± 1.3 J/K/mol
233.86 K, Crystal
  molar heat capacity at constant pressure: 145.93 ± 1.3 J/K/mol
235 K, Crystal
  molar heat capacity at constant pressure: 148.46 ± 1.3 J/K/mol
235.74 K, Crystal
  molar heat capacity at constant pressure: 147.41 ± 1.3 J/K/mol
237.59 K, Crystal
  molar heat capacity at constant pressure: 149.22 ± 1.3 J/K/mol
239.37 K, Crystal
  molar heat capacity at constant pressure: 150.76 ± 1.3 J/K/mol
240 K, Crystal
  molar heat capacity at constant pressure: 153.02 ± 1.4 J/K/mol
241.16 K, Crystal
  molar heat capacity at constant pressure: 152.29 ± 1.4 J/K/mol
242.94 K, Crystal
  molar heat capacity at constant pressure: 153.83 ± 1.4 J/K/mol
244.82 K, Crystal
  molar heat capacity at constant pressure: 155.45 ± 1.4 J/K/mol
245 K, Crystal
  molar heat capacity at constant pressure: 157.52 ± 1.4 J/K/mol
246.54 K, Crystal
  molar heat capacity at constant pressure: 157.09 ± 1.4 J/K/mol
248.36 K, Crystal
  molar heat capacity at constant pressure: 158.9 ± 1.4 J/K/mol
250 K, Crystal
  molar heat capacity at constant pressure: 161.95 ± 1.4 J/K/mol
250.17 K, Crystal
  molar heat capacity at constant pressure: 160.56 ± 1.4 J/K/mol
251.99 K, Crystal
  molar heat capacity at constant pressure: 162.22 ± 1.4 J/K/mol
253.81 K, Crystal
  molar heat capacity at constant pressure: 163.9 ± 1.4 J/K/mol
255 K, Crystal
  molar heat capacity at constant pressure: 166.26 ± 1.4 J/K/mol
255.54 K, Crystal
  molar heat capacity at constant pressure: 165.36 ± 1.4 J/K/mol
257.36 K, Crystal
  molar heat capacity at constant pressure: 167.29 ± 1.4 J/K/mol
259.09 K, Crystal
  molar heat capacity at constant pressure: 168.63 ± 1.5 J/K/mol
260 K, Crystal
  molar heat capacity at constant pressure: 170.45 ± 1.5 J/K/mol
260.82 K, Crystal
  molar heat capacity at constant pressure: 170.5 ± 1.5 J/K/mol
262.61 K, Crystal
  molar heat capacity at constant pressure: 172.01 ± 1.5 J/K/mol
264.31 K, Crystal
  molar heat capacity at constant pressure: 173.55 ± 1.5 J/K/mol
265 K, Crystal
  molar heat capacity at constant pressure: 174.52 ± 1.5 J/K/mol
266.12 K, Crystal
  molar heat capacity at constant pressure: 175.31 ± 1.5 J/K/mol
267.82 K, Crystal
  molar heat capacity at constant pressure: 177.02 ± 1.5 J/K/mol
269.53 K, Crystal
  molar heat capacity at constant pressure: 178.52 ± 1.5 J/K/mol
270 K, Crystal
  molar heat capacity at constant pressure: 178.5 ± 1.5 J/K/mol
271.28 K, Crystal
  molar heat capacity at constant pressure: 180.17 ± 1.5 J/K/mol
273.31 K, Crystal
  molar heat capacity at constant pressure: 181.94 ± 1.5 J/K/mol
275 K, Crystal
  molar heat capacity at constant pressure: 182.44 ± 1.5 J/K/mol
275.35 K, Crystal
  molar heat capacity at constant pressure: 183.81 ± 1.5 J/K/mol
277.03 K, Crystal
  molar heat capacity at constant pressure: 185.45 ± 1.6 J/K/mol
278.73 K, Crystal
  molar heat capacity at constant pressure: 187.1 ± 1.6 J/K/mol
280 K, Crystal
  molar heat capacity at constant pressure: 186.41 ± 1.6 J/K/mol
280.36 K, Crystal
  molar heat capacity at constant pressure: 188.67 ± 1.6 J/K/mol
282.45 K, Crystal
  molar heat capacity at constant pressure: 190.66 ± 1.6 J/K/mol
284.97 K, Crystal
  molar heat capacity at constant pressure: 193.03 ± 1.6 J/K/mol
285 K, Crystal
  molar heat capacity at constant pressure: 190.55 ± 1.6 J/K/mol
287.46 K, Crystal
  molar heat capacity at constant pressure: 195.7 ± 1.6 J/K/mol
289.88 K, Crystal
  molar heat capacity at constant pressure: 197.97 ± 1.6 J/K/mol
290 K, Crystal
  molar heat capacity at constant pressure: 195 ± 1.6 J/K/mol
292.31 K, Crystal
  molar heat capacity at constant pressure: 200.61 ± 1.7 J/K/mol
294.67 K, Crystal
  molar heat capacity at constant pressure: 203.16 ± 1.7 J/K/mol
295 K, Crystal
  molar heat capacity at constant pressure: 199.98 ± 1.6 J/K/mol
297.1 K, Crystal
  molar heat capacity at constant pressure: 205.53 ± 1.7 J/K/mol
298.15 K, Crystal
  molar heat capacity at constant pressure: 203.5 ± 1.7 J/K/mol
299.37 K, Crystal
  molar heat capacity at constant pressure: 207.64 ± 1.7 J/K/mol
300 K, Crystal
  molar heat capacity at constant pressure: 205.75 ± 1.7 J/K/mol
301.81 K, Crystal
  molar heat capacity at constant pressure: 210.9 ± 1.7 J/K/mol
304.16 K, Crystal
  molar heat capacity at constant pressure: 213.44 ± 1.7 J/K/mol
305 K, Crystal
  molar heat capacity at constant pressure: 212.62 ± 1.7 J/K/mol
306.51 K, Crystal
  molar heat capacity at constant pressure: 215.82 ± 1.7 J/K/mol
308.81 K, Crystal
  molar heat capacity at constant pressure: 218.8 ± 1.8 J/K/mol
310 K, Crystal
  molar heat capacity at constant pressure: 221 ± 1.8 J/K/mol
311.13 K, Crystal
  molar heat capacity at constant pressure: 221.26 ± 1.8 J/K/mol
313.43 K, Crystal
  molar heat capacity at constant pressure: 224.91 ± 1.8 J/K/mol
315 K, Crystal
  molar heat capacity at constant pressure: 231.34 ± 1.8 J/K/mol
315.72 K, Crystal
  molar heat capacity at constant pressure: 227.54 ± 1.8 J/K/mol
317.98 K, Crystal
  molar heat capacity at constant pressure: 230.32 ± 1.8 J/K/mol
320 K, Crystal
  molar heat capacity at constant pressure: 244.2 ± 1.9 J/K/mol
320.22 K, Crystal
  molar heat capacity at constant pressure: 234.71 ± 1.9 J/K/mol
322.44 K, Crystal
  molar heat capacity at constant pressure: 240.42 ± 1.9 J/K/mol
324.6 K, Crystal
  molar heat capacity at constant pressure: 251.25 ± 2 J/K/mol
325 K, Crystal
  molar heat capacity at constant pressure: 260.21 ± 2 J/K/mol
326.7 K, Crystal
  molar heat capacity at constant pressure: 266.66 ± 2.1 J/K/mol
328.7 K, Crystal
  molar heat capacity at constant pressure: 300.96 ± 2.3 J/K/mol
330 K, Crystal
  molar heat capacity at constant pressure: 280.12 ± 2.2 J/K/mol
337.34 K, Liquid
  molar heat capacity at constant pressure: 308.51 ± 2.3 J/K/mol
339.25 K, Liquid
  molar heat capacity at constant pressure: 307.6 ± 2.3 J/K/mol
340 K, Liquid
  molar heat capacity at constant pressure: 306.94 ± 2.3 J/K/mol
341.15 K, Liquid
  molar heat capacity at constant pressure: 306.76 ± 2.3 J/K/mol
343.06 K, Liquid
  molar heat capacity at constant pressure: 306.95 ± 2.3 J/K/mol
344.96 K, Liquid
  molar heat capacity at constant pressure: 308.07 ± 2.3 J/K/mol
345 K, Liquid
  molar heat capacity at constant pressure: 308.18 ± 2.3 J/K/mol
346.86 K, Liquid
  molar heat capacity at constant pressure: 309.65 ± 2.4 J/K/mol
348.76 K, Liquid
  molar heat capacity at constant pressure: 311.73 ± 2.4 J/K/mol
350 K, Liquid
  molar heat capacity at constant pressure: 313.29 ± 2.4 J/K/mol
350.67 K, Liquid
  molar heat capacity at constant pressure: 314.26 ± 2.4 J/K/mol
352.57 K, Liquid
  molar heat capacity at constant pressure: 316.99 ± 2.4 J/K/mol
354.47 K, Liquid
  molar heat capacity at constant pressure: 319.51 ± 2.4 J/K/mol
355 K, Liquid
  molar heat capacity at constant pressure: 320.24 ± 2.4 J/K/mol
356.36 K, Liquid
  molar heat capacity at constant pressure: 322.01 ± 2.4 J/K/mol
358.26 K, Liquid
  molar heat capacity at constant pressure: 324.95 ± 2.5 J/K/mol
360 K, Liquid
  molar heat capacity at constant pressure: 327.6 ± 2.5 J/K/mol
360.13 K, Liquid
  molar heat capacity at constant pressure: 327.9 ± 2.5 J/K/mol
